molecular target: T1, Calcium/calmodulin-dependent protein kinase type IV (Homo sapiens) (UniProt Q16566)
T1 sequence (whole entry): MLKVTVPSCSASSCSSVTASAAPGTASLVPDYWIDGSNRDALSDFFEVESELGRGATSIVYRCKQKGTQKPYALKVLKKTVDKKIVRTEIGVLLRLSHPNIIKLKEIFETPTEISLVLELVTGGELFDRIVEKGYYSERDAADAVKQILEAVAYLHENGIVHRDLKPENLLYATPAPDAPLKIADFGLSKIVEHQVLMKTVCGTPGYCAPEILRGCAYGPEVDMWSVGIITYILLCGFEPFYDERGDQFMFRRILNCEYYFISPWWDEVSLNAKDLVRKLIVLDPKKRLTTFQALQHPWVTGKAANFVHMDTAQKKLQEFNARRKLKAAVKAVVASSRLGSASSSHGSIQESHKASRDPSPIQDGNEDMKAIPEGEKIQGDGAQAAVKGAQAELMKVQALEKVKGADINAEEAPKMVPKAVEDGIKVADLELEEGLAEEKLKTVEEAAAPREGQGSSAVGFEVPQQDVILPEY

Row | Structure (SMILES) | ΔTm
1 | CC(=O)O/N=C1/C(=C2/C(=O)Nc3cc(Br)ccc32)Nc2ccccc21 [6-BROMOINDIRUBIN-3'-ACETOXIME] | 4.6 °C
2 | COc1cc(OC)c(/C=C2\C(=O)Nc3ccccc32)c(OC)c1 | -0.1 °C
3 | CCOc1cc2ncnc(Nc3cccc(Br)c3)c2cc1OCC | 0.3 °C
4 | CC(C)(C)n1nc(-c2ccc(Cl)cc2)c2c(N)ncnc21 | 0 °C
5 | CSc1nc(-c2ccc(F)cc2)c(-c2ccnc(NC(C)c3ccccc3)c2)[nH]1 (racemic) | -0.3 °C

molecular target: Cyclin-dependent kinase 2 (Homo sapiens, UniProt P24941)

Row | Structure (SMILES) | ΔTm
6 | CC(=O)O/N=C1/C(=C2/C(=O)Nc3cc(Br)ccc32)Nc2ccccc21 [6-BROMOINDIRUBIN-3'-ACETOXIME] | 3.2 °C
7 | COc1cc(OC)c(/C=C2\C(=O)Nc3ccccc32)c(OC)c1 | 0.5 °C
8 | CCOc1cc2ncnc(Nc3cccc(Br)c3)c2cc1OCC | 0.4 °C
9 | CC(C)(C)n1nc(-c2ccc(Cl)cc2)c2c(N)ncnc21 | 0.7 °C
10 | CSc1nc(-c2ccc(F)cc2)c(-c2ccnc(NC(C)c3ccccc3)c2)[nH]1 (racemic) | -0.5 °C

molecular target: Casein kinase I isoform gamma-2 (Homo sapiens) (UniProt P78368)
Sequence (P78368 whole entry, looked up, canonical isoform): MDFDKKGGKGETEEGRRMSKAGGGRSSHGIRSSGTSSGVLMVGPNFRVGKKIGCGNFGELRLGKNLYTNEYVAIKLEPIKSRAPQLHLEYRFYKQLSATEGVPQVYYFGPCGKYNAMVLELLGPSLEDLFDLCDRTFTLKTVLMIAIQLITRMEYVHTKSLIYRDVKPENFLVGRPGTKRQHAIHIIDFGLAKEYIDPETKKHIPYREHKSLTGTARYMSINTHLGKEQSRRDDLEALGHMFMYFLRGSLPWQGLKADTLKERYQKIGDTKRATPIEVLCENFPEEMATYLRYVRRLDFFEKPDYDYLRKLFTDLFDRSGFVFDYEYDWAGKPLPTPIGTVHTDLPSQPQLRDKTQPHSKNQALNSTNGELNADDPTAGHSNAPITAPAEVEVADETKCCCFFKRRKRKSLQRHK

Row | Structure (SMILES) | ΔTm
11 | CC(=O)O/N=C1/C(=C2/C(=O)Nc3cc(Br)ccc32)Nc2ccccc21 [6-BROMOINDIRUBIN-3'-ACETOXIME] | 0.5 °C
12 | COc1cc(OC)c(/C=C2\C(=O)Nc3ccccc32)c(OC)c1 | 0.7 °C
13 | CCOc1cc2ncnc(Nc3cccc(Br)c3)c2cc1OCC | 0.6 °C
14 | CC(C)(C)n1nc(-c2ccc(Cl)cc2)c2c(N)ncnc21 | 0.8 °C
15 | CSc1nc(-c2ccc(F)cc2)c(-c2ccnc(NC(C)c3ccccc3)c2)[nH]1 (racemic) | 3.4 °C

molecular target: Serine/threonine-protein kinase PAK 4 (Homo sapiens) (UniProt O96013)
Sequence (O96013 whole entry, looked up): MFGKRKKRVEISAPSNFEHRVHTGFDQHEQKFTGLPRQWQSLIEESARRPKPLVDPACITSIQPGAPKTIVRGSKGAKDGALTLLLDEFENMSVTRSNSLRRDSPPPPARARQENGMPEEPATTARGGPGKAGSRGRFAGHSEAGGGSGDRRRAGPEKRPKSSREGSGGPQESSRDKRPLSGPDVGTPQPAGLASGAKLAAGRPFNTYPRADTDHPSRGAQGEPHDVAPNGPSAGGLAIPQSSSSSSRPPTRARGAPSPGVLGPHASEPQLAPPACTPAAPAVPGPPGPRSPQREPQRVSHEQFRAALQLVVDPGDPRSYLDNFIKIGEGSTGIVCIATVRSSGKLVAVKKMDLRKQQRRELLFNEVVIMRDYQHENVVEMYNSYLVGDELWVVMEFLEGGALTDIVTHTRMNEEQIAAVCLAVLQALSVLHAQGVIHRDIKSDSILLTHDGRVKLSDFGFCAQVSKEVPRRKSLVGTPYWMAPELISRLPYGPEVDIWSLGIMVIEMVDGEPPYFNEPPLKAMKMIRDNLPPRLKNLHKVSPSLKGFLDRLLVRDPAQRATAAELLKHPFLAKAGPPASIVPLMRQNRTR

Row | Structure (SMILES) | ΔTm
16 | CC(=O)O/N=C1/C(=C2/C(=O)Nc3cc(Br)ccc32)Nc2ccccc21 [6-BROMOINDIRUBIN-3'-ACETOXIME] | 2.2 °C
17 | COc1cc(OC)c(/C=C2\C(=O)Nc3ccccc32)c(OC)c1 | 0.1 °C
18 | CCOc1cc2ncnc(Nc3cccc(Br)c3)c2cc1OCC | 0.4 °C
19 | CC(C)(C)n1nc(-c2ccc(Cl)cc2)c2c(N)ncnc21 | 1 °C
20 | CSc1nc(-c2ccc(F)cc2)c(-c2ccnc(NC(C)c3ccccc3)c2)[nH]1 (racemic) | 0.2 °C

molecular target: Serine/threonine-protein kinase pim-3 (Homo sapiens) (UniProt Q86V86)

Row | Structure (SMILES) | ΔTm
21 | CC(=O)O/N=C1/C(=C2/C(=O)Nc3cc(Br)ccc32)Nc2ccccc21 [6-BROMOINDIRUBIN-3'-ACETOXIME] | 1.1 °C
22 | COc1cc(OC)c(/C=C2\C(=O)Nc3ccccc32)c(OC)c1 | 1 °C
23 | CCOc1cc2ncnc(Nc3cccc(Br)c3)c2cc1OCC | 2.7 °C
24 | CC(C)(C)n1nc(-c2ccc(Cl)cc2)c2c(N)ncnc21 | 0.7 °C
25 | CSc1nc(-c2ccc(F)cc2)c(-c2ccnc(NC(C)c3ccccc3)c2)[nH]1 (racemic) | -0.5 °C

molecular target: Serine/threonine-protein kinase RIO2 (Homo sapiens) (UniProt Q9BVS4)
Sequence (Q9BVS4 whole entry, looked up): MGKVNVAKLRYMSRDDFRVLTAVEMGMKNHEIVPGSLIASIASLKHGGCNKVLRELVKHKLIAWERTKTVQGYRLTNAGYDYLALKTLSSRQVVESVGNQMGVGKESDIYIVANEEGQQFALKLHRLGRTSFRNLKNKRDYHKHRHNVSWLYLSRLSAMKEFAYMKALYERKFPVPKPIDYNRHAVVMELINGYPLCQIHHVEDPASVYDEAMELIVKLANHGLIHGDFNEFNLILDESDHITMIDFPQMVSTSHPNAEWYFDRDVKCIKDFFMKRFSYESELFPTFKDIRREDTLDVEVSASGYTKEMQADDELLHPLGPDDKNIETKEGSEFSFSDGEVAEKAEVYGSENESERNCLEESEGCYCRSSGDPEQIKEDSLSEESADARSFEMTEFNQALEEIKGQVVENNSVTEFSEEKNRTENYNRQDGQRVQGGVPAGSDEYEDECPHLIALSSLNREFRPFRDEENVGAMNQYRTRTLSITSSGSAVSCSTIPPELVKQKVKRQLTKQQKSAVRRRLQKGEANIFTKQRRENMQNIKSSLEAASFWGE

Row | Structure (SMILES) | ΔTm
26 | CC(=O)O/N=C1/C(=C2/C(=O)Nc3cc(Br)ccc32)Nc2ccccc21 [6-BROMOINDIRUBIN-3'-ACETOXIME] | 1.7 °C
27 | COc1cc(OC)c(/C=C2\C(=O)Nc3ccccc32)c(OC)c1 | -0.2 °C
28 | CCOc1cc2ncnc(Nc3cccc(Br)c3)c2cc1OCC | 3.5 °C
29 | CC(C)(C)n1nc(-c2ccc(Cl)cc2)c2c(N)ncnc21 | 3.1 °C
30 | CSc1nc(-c2ccc(F)cc2)c(-c2ccnc(NC(C)c3ccccc3)c2)[nH]1 (racemic) | 0 °C

molecular target: Ribosomal protein S6 kinase alpha-3 (Homo sapiens) (UniProt P51812)
Sequence (P51812 whole entry): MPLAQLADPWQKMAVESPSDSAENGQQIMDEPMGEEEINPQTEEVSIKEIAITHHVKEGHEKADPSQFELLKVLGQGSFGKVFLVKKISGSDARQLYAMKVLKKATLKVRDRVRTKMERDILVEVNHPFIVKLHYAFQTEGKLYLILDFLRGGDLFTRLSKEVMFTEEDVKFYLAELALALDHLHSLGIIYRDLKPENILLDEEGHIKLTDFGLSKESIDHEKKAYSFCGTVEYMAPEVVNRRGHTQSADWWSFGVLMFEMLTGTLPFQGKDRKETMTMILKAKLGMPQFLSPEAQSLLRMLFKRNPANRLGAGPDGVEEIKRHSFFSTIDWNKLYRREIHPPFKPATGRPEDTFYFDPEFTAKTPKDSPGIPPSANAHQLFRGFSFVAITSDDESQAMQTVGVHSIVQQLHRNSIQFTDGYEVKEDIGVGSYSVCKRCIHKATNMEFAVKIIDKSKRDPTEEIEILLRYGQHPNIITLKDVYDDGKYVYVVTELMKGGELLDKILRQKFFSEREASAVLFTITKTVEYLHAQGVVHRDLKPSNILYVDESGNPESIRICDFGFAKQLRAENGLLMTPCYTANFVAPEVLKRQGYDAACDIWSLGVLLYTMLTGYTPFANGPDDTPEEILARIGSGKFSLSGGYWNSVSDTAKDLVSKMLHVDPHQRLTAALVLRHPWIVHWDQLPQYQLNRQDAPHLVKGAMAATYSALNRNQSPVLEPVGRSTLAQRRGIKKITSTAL

Row | Structure (SMILES) | ΔTm
31 | CC(=O)O/N=C1/C(=C2/C(=O)Nc3cc(Br)ccc32)Nc2ccccc21 [6-BROMOINDIRUBIN-3'-ACETOXIME] | 2.5 °C
32 | COc1cc(OC)c(/C=C2\C(=O)Nc3ccccc32)c(OC)c1 | -0.2 °C
33 | CCOc1cc2ncnc(Nc3cccc(Br)c3)c2cc1OCC | 2.5 °C
34 | CC(C)(C)n1nc(-c2ccc(Cl)cc2)c2c(N)ncnc21 | 2.1 °C
35 | CSc1nc(-c2ccc(F)cc2)c(-c2ccnc(NC(C)c3ccccc3)c2)[nH]1 (racemic) | 0.4 °C

molecular target: Serine/threonine-protein kinase 16 (Homo sapiens) (UniProt O75716)
Sequence (O75716 whole entry): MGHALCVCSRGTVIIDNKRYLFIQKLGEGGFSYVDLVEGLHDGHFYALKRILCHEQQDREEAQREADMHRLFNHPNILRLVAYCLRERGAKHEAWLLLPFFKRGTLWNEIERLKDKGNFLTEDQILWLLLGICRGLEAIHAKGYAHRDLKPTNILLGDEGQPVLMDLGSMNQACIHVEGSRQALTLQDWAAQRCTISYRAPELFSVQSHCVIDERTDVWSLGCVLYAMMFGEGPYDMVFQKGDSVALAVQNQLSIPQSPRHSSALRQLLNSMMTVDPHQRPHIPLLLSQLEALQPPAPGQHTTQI

Row | Structure (SMILES) | ΔTm
36 | CC(=O)O/N=C1/C(=C2/C(=O)Nc3cc(Br)ccc32)Nc2ccccc21 [6-BROMOINDIRUBIN-3'-ACETOXIME] | 1.7 °C
37 | COc1cc(OC)c(/C=C2\C(=O)Nc3ccccc32)c(OC)c1 | 0.2 °C
38 | CCOc1cc2ncnc(Nc3cccc(Br)c3)c2cc1OCC | 0.9 °C
39 | CC(C)(C)n1nc(-c2ccc(Cl)cc2)c2c(N)ncnc21 | 1 °C
40 | CSc1nc(-c2ccc(F)cc2)c(-c2ccnc(NC(C)c3ccccc3)c2)[nH]1 (racemic) | -0.1 °C

molecular target: T2, Serine/threonine-protein kinase 4 (Homo sapiens) (UniProt Q13043)
T2 sequence (whole entry): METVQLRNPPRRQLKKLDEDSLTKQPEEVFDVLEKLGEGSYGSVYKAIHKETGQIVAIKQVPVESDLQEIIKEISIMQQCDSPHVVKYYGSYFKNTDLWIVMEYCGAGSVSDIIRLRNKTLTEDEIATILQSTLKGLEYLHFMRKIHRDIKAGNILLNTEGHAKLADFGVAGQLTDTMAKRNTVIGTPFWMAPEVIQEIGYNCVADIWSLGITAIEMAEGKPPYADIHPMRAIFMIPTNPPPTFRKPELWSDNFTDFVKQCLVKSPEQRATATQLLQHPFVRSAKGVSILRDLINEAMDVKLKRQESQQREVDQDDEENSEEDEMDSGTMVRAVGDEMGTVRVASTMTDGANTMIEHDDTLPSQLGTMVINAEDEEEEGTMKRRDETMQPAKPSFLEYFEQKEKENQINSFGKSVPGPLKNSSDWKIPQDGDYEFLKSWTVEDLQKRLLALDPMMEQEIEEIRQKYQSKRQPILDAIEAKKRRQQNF

Row | Structure (SMILES) | ΔTm
41 | CC(=O)O/N=C1/C(=C2/C(=O)Nc3cc(Br)ccc32)Nc2ccccc21 [6-BROMOINDIRUBIN-3'-ACETOXIME] | 3.5 °C
42 | COc1cc(OC)c(/C=C2\C(=O)Nc3ccccc32)c(OC)c1 | -0.1 °C
43 | CCOc1cc2ncnc(Nc3cccc(Br)c3)c2cc1OCC | 2.2 °C
44 | CC(C)(C)n1nc(-c2ccc(Cl)cc2)c2c(N)ncnc21 | 2.1 °C
45 | CSc1nc(-c2ccc(F)cc2)c(-c2ccnc(NC(C)c3ccccc3)c2)[nH]1 (racemic) | 1.3 °C

molecular target: T3, Lymphokine-activated killer T-cell-originated protein kinase (Homo sapiens) (UniProt Q96KB5)
T3 sequence (whole entry): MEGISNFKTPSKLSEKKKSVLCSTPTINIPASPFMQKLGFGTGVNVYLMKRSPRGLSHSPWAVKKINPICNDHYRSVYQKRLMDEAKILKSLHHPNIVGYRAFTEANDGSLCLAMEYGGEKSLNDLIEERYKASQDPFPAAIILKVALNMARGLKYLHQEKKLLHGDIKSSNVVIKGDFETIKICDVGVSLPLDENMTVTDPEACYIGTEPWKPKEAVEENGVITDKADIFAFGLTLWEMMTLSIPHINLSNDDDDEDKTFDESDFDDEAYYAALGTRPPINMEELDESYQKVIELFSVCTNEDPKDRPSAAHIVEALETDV

Row | Structure (SMILES) | ΔTm
46 | CC(=O)O/N=C1/C(=C2/C(=O)Nc3cc(Br)ccc32)Nc2ccccc21 [6-BROMOINDIRUBIN-3'-ACETOXIME] | -0.3 °C
47 | COc1cc(OC)c(/C=C2\C(=O)Nc3ccccc32)c(OC)c1 | 0.5 °C
48 | CCOc1cc2ncnc(Nc3cccc(Br)c3)c2cc1OCC | 0.1 °C
49 | CC(C)(C)n1nc(-c2ccc(Cl)cc2)c2c(N)ncnc21 | 0.7 °C
50 | CSc1nc(-c2ccc(F)cc2)c(-c2ccnc(NC(C)c3ccccc3)c2)[nH]1 (racemic) | 0.4 °C

molecular target: Serine/threonine-protein kinase VRK2 (Homo sapiens) (UniProt Q86Y07)
Sequence (Q86Y07 whole entry): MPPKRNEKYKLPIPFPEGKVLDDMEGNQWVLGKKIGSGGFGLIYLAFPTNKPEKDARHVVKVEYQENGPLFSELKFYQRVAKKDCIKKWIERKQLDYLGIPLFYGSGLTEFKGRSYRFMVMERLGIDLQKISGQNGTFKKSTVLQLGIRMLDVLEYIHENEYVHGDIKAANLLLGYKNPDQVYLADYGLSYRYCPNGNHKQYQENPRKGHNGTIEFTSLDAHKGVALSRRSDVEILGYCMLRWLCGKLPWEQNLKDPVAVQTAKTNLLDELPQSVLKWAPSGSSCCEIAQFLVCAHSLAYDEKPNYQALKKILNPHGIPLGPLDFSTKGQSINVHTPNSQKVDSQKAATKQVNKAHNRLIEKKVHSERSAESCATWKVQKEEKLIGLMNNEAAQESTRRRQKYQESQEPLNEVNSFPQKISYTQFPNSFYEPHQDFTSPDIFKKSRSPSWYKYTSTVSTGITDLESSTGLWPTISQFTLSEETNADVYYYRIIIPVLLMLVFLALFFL

Row | Structure (SMILES) | ΔTm
51 | CC(=O)O/N=C1/C(=C2/C(=O)Nc3cc(Br)ccc32)Nc2ccccc21 [6-BROMOINDIRUBIN-3'-ACETOXIME] | 0.6 °C
52 | COc1cc(OC)c(/C=C2\C(=O)Nc3ccccc32)c(OC)c1 | 2.2 °C
53 | CCOc1cc2ncnc(Nc3cccc(Br)c3)c2cc1OCC | 0.6 °C
54 | CC(C)(C)n1nc(-c2ccc(Cl)cc2)c2c(N)ncnc21 | 0.3 °C
55 | CSc1nc(-c2ccc(F)cc2)c(-c2ccnc(NC(C)c3ccccc3)c2)[nH]1 (racemic) | 0.2 °C
